Assay results reported in patent US20240262830A1, “IRE1A MODULATORS AND USES THEREOF” (Nimbus Iaso, Inc., priority 2020, published 2024).

Assays:
[1] = biological target: T1, truncated human IRE1a WT protein, containing the catalytic part (aa 547-977) (Homo sapiens, UniProt O75460); experiment: IRE1a biochemical enzyme splice assay; conditions: 20 nM protein, 500 nM fluorescently quenched IRE1a substrate, 40 min at room temperature; read-out: EnzymeSplice_hIRE1a_IC50 (IC50)
T1 construct: containing the catalytic part (aa 547-977); made in house
Experimental: A truncated human IRE1a WT protein, containing the catalytic part (aa 547-977) was expressed in baculovirus. The purified protein (20 nM) was incubated with a fluorescently quenched IRE1a substrate (500 nM; 5′/6-FAM-CAGUCCGCAGCACUG-BHQ-1/3′) and a titration of inhibitor, starting at 10 μM (final DMSO concentration=1%) for 40 min at room temperature in assay buffer. Reactions were carried out in a final volume of […] in a 384 well assay plate. The reaction was stopped, and the plate was spun for 1 minute at 1000 rpm. The fluorescence intensity of the IRE1a-substrate was measured using an fluorescent plate reader (Ex 485 nm/Em 535 nm, Perkin Elmer Envision).

hIRE1a = experiment: XBP1-Luc cell assay; type: cell-based; conditions: Homo sapiens; HEK293-pLVX-XBP1.fluc-IRES-Puro cells, 600 nM Thapsigargin 1 hour, then inhibitor 6 hours; read-out: fLuc_XBP1_hIRE1a_HEK293_IC50 (IC50)
Experimental: HEK293-pLVX-XBP1.fluc-IRES-Puro cells (ChemPartner) were collected into DMEM (Invitrogen, 11995-065) with 10% FBS (BI, 04-002-1A). Cells were seeded at 1.5E4 cells/well in BioCoat Poly-D-Lysine Black/Clear flat bottom 96 well plate (Corning, 356640) and incubated overnight at 37° C. and 5% CO2. Cells were treated with 600 nM Thapsigargin (Sigma, T9033) for 1 hour at 37° C. and 5% CO2 prior to inhibitor addition. A titration of inhibitor, starting at 30 μM was added to wells for an additional 6 hours at 37° C. and 5% CO2. 100 μl of Steady-Glo Luciferase assay reagent (Promega, E2550) was added to plate and the plate was shaken for 2 minutes. Signal was read using EnSpire (Perkin Elmer).

T1 sequence (O75460 547-977): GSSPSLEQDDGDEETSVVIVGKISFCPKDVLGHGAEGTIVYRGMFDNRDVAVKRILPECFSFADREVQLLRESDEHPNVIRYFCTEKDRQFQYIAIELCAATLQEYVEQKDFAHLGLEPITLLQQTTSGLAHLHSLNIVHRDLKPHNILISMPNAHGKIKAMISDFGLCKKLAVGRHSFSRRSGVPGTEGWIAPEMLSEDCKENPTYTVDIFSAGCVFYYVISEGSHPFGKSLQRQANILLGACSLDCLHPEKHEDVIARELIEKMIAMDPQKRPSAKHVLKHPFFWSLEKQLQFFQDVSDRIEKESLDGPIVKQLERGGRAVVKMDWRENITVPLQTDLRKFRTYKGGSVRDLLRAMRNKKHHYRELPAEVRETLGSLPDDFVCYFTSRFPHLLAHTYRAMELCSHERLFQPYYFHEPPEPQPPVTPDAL

| IC50 [1] | IC50 (hIRE1a) | SMILES |
| --- | --- | --- |
| 100 to 1000 nM | 1000 to 10000 nM | CCc1cc(-c2ccc3c(NC[C@H](O)CC)ncnn23)cc2cnc(N[C@H]3CCCNC3)nc12 [Compound I-20, (R)-1-((7-(8-ethyl-2-(((S)-piperidin-3-yl)amino)quinazolin-6-yl)pyrrolo[2,1-f][1,2,4]triazin-4-yl)amino)butan-2-ol] |
| < 100 nM | < 1000 nM | CCc1cc(-c2ccc3c(NS(=O)(=O)Cc4cccc(F)c4F)ncnn23)cc2cnc(N[C@H]3CCCNC3)nc12 [Compound I-21, (S)-1-(2,3-difluorophenyl)-N-(7-(8-ethyl-2-(piperidin-3-ylamino)quinazolin-6-yl)pyrrolo[2,1-f][1,2,4]triazin-4-yl)methanesulfonamide] |
| < 100 nM | < 1000 nM | CCc1cc(-c2ccc3c(NS(=O)(=O)c4ccccc4Cl)ncnn23)cc2cnc(N[C@H]3CCCNC3)nc12 [Compound I-22, (S)-2-chloro-N-(7-(8-ethyl-2-(piperidin-3-ylamino)quinazolin-6-yl)pyrrolo[2,1-f][1,2,4]triazin-4-yl)benzenesulfonamide] |
| < 100 nM | 1000 to 10000 nM | CCc1cc(-c2csc3c(NS(=O)(=O)c4ccccc4Cl)ncnc23)cc2cnc(N[C@H]3CCCNC3)nc12 [Compound I-23, (S)-2-chloro-N-(7-(8-ethyl-2-(piperidin-3-ylamino)quinazolin-6-yl)thieno[3,2-d]pyrimidin-4-yl)benzenesulfonamide] |
| < 100 nM | < 1000 nM | CCc1cc(-c2ccc3c(NS(=O)(=O)Cc4ccccc4Cl)ncnn23)cc2cnc(N[C@H]3CCCNC3)nc12 [Compound I-25, (S)-1-(2-chlorophenyl)-N-(7-(8-ethyl-2-(piperidin-3-ylamino)quinazolin-6-yl)pyrrolo[2,1-f][1,2,4]triazin-4-yl)methanesulfonamide] |
| < 100 nM | 1000 to 10000 nM | CCc1cc(-c2ccc3c(NS(=O)(=O)c4ccccc4)ncnn23)cc2cnc(N[C@H]3CCCNC3)nc12 [Compound I-26, (S)—N-(7-(8-ethyl-2-(piperidin-3-ylamino)quinazolin-6-yl)pyrrolo[2,1-f][1,2,4]triazin-4-yl)benzenesulfonamide] |
| 100 to 1000 nM | 1000 to 10000 nM | CCc1cc(-c2ccc3c(NS(=O)(=O)c4ccc(OC(F)(F)F)cc4)ncnn23)cc2cnc(N[C@H]3CCCNC3)nc12 [Compound I-27, (S)—N-(7-(8-ethyl-2-(piperidin-3-ylamino)quinazolin-6-yl)pyrrolo[2,1-f][1,2,4]triazin-4-yl)-4-(trifluoromethoxy)benzenesulfonamide] |
| 100 to 1000 nM | > 10000 nM | CCc1cc(-c2ccc3c(NS(=O)(=O)c4ccccc4Cl)ncnn23)cc2cnc(NC3CC4(COC4)C3)nc12 [Compound I-28, N-(7-(2-((2-oxaspiro[3.3]heptan-6-yl)amino)-8-ethylquinazolin-6-yl)pyrrolo[2,1-f][1,2,4]triazin-4-yl)-2-chlorobenzenesulfonamide] |
| < 100 nM | 1000 to 10000 nM | CCc1cc(-c2ccc3c(NS(=O)(=O)c4ccccc4Cl)ncnn23)cc2cnc(N[C@H]3CC[C@H](O)CC3)nc12 [Compound I-29, 2-chloro-N-(7-(8-ethyl-2-(((1r,4r)-4-hydroxycyclohexyl)amino)quinazolin-6-yl)pyrrolo[2,1-f][1,2,4]triazin-4-yl)benzenesulfonamide] |
| < 100 nM | < 1000 nM | CCc1cc(-c2ccc3c(NS(=O)(=O)N4CCCC4)ncnn23)cc2cnc(N[C@H]3CCCNC3)nc12 [Compound I-30, Pyrrolidine-1-sulfonic acid {7-[8-ethyl-2-(piperidin-3-ylamino)-quinazolin-6-yl]-pyrrolo[2,1-f][1,2,4]triazin-4-yl}-amide] |
| < 100 nM | < 1000 nM | CCc1cc(-c2ccc3c(NS(=O)(=O)c4ccccc4Cl)ncnn23)cc2cnc(N[C@@H]3CNC[C@H](C)C3)nc12 [Compound I-31] |
| < 100 nM | < 1000 nM | CCc1cc(-c2ccc3c(NS(=O)(=O)c4ccccc4Cl)ncnn23)cc2cnc(N[C@H]3CC[C@H](N)CC3)nc12 [Compound I-32] |
| < 100 nM | < 1000 nM | CCCS(=O)(=O)Nc1ncnn2c(-c3cc(CC)c4nc(N[C@H]5CCCNC5)ncc4c3)ccc12 [Compound I-33, (S)—N-(7-(8-ethyl-2-(piperidin-3-ylamino)quinazolin-6-yl)pyrrolo[2,1-f][1,2,4]triazin-4-yl)propane-1-sulfonamide] |
